Data published in article PMC7503370, “Cellular Signaling and Anti-Apoptotic Effects of Prolactin-Releasing Peptide and Its Analog on SH-SY5Y Cells” (International Journal of Molecular Sciences, 2020).
Numbered stars: 1 amine (or outer) side, 2 acyl side, 3 side chain; on linkers, the order of the positions; unused ones are H or OH. Side chains are listed from the residue outwards. Peptide text beside a SMILES is read from it. * marks the point of attachment. γGlu = O=C(O)[C@H](CCC(=O)[*:2])N[*:1]; Palmitoyl = CCCCCCCCCCCCCCCC(=O)*

What was measured:
Format in all cases: cell-based, human
SH-SY5Y cells = assay: Treatment with peptides after 16 h exposure to MG, MTT cell viability; conditions: 1.2 mM MG 16 h, then 4 h treatment 1 × 10^−5 M, n = 3, octuplicates
Description: Treatment for 4 h with PrRP31 and palm^11-PrRP31 at a concentration of: (a) 1 × 10^−5 M; after exposure to 1.2 mM MG for 16 h in SH-SY5Y cells. Treatment for 4 h with PrRP31 and palm^11-PrRP31 at a concentration of: (b) 1 × 10^−5 M; (c) 1 × 10^−7 M, after exposure to 0.6 mM MG for 16 h in SH-SY5Y cells. MG toxicity measured with MTT assay. Data are presented as the means ± SEM as a percentage of control cells treated with vehicle analyzed by a Student´s t-test vs. 0.6 mM MG ## p < 0.01, ### p < 0.001, #### p < 0.0001 (n = 3, each sample in octuplicates). Control vs. 0.6 mM MG analyzed by a Student´s t-test, * p < 0.5, ** p < 0.01.
The MTT test was used to measure cell viability. The MTT reagent was dissolved in RPMI-1640 without phenol red. Cells were incubated for 2 h with a 10% solution of MTT at 37 °C. Living cells converted soluble MTT to insoluble formazan, which was subsequently dissolved in DMSO. The absorbance was measured at a wavelength of 560 nm.
For this assay, cells were cultured in 96-well plates at a density of 40,000 cells per well. The growth medium was exchanged for serum-free DMEM 16 h before the experiment. First, the cells were pretreated with 1 × 10^−5 M or 1 × 10^−7 M PrRP31 or palm^11-PrRP31 (in octuplicates) for 4 h to prevent MG cytotoxic effects; then, MG was added to a final concentration of 0.6 mM or 1.2 mM. The cells were incubated at 37 °C for 16 h. […]

[1] = system: Tau protein phosphorylation in SH-SY5Y cells; assay: Western blotting of Tau phosphorylation in MG-stressed cells; conditions: 4 h pretreatment 1 × 10^−5 M, then 0.6 mM MG 16 h, vs MG; for attenuation of MG-increased Tau phosphorylation at Ser396: normalized to GAPDH
Description: Figure 8 PrRP31 and palm^11-PrRP31 attenuate Tau hyperphosphorylation at the epitope Ser396 in SH-SY5Y. Immunoblots with: (a) and their quantifications: (b). SH-SY5Y cells were pretreated with PrRP31 and palm^11-PrRP31 at a concentration of 1 × 10^−5 M for 4 h and then stressed with 0.6 mM MG for 16 h. Activation was expressed as the ratio of the activated protein to the total amount of the protein, both normalized to loading control, GAPDH. Data are presented as the means ± SEM as a percentage of control cells treated with medium alone. Analysis is made vs. MG by a Student’s t-test, * p < 0.5, ** p < 0.01 (each sample replicate in triplicate).
For the investigation of the molecular mechanism of PrRP31 and its analog in the cells, signaling pathways were studied by Western blotting (WB). The cells were cultured in 6-well plates at a density of 800,000 cells per well. Growth medium was exchanged for serum-free DMEM 16 h before an experiment, and then, the cells were incubated with PrRP31, palm^11-PrRP31, or scrambled peptide at a final concentration of 1 × 10^−5 M or insulin at a concentration of 1 × 10^−7 M at 37 °C for 8 min. The cells were rapidly cooled on ice and lysed in 400 µl of Laemmli sample buffer (62.5 mM Tris-HCl with pH 6.8, 2% SDS, 10% glycerol, 0.01% bromophenol blue, 5% mercaptoethanol, 50 mM NaF, and 1 mM Na3VO4) and stored at −20 °C. Afterward, the cell lysates were analyzed by WB. SDS-electrophoresis and WB were carried out using a Criterion system with a 26-well 4−15% Criterion^TM TGX^TM Precast Midi Protein Gel (Bio-Rad, Hercules, CA, USA) at a constant voltage of 200 V or 100 V, respectively.
Subsequently, the membranes were incubated overnight with primary antibody (Ab) at 4 °C, according to the manufacturer´s instructions (Table 2). The next day, the membranes were incubated with an HRP-linked secondary antibody for 1 h at room temperature. Chemiluminescence was visualized with a ChemiDoc^TM System (Bio-Rad). Band intensities were normalized using glyceraldehyde 3-phosphate dehydrogenase (GAPDH) as an internal loading control.
For analysis of the molecular mechanism during MG stress, the growth medium was exchanged for serum-free DMEM 16 h before the experiment. The cells were pretreated with 1 × 10^−5 M PrRP31 or palm^11-PrRP31 for 4 h; then, MG was added to a final concentration of 0.6 mM, and the cells were incubated at 37 °C for 16 h. The controls and compounds were tested in triplicate.

[2] = system: p-m-Tor, p-GSK-3β, p-ERK, p-CREB in SH-SY5Y cells; assay: Western blotting with selective inhibitors of signaling pathways; conditions: insulin 1 × 10^−7 M, 37 °C, 8 min; for p-CREB after incubation with peptide, no inhibitor / p-ERK after incubation with peptide, no inhibitor / p-m-Tor (Ser2448) after application of peptide, no inhibitor: PrRP31 and palm^11-PrRP31 1 × 10^−5 M
Description: Immunoblots with PrRP31 and palm^11-PrRP31: (a) and insulin: (b) and their quantifications: (c). SH-SY5Y cells were incubated firstly with selective inhibitors for 2 min and then either with PrRP31 and its palmitoylated analog at a final concentration 1 × 10^−5 M, or with insulin in the final concentration 1 × 10^−7 M at 37 °C for 8 min, or alone in serum-free medium. Activated protein was normalized to loading control, GAPDH. Data are presented as the means ± SEM as a percentage of control cells treated with medium alone. Analysis is made between groups as shown in the graph by a Student’s t-test, * p < 0.5, ** p < 0.01, *** p < 0.001(each sample in triplicates).
Eight minutes of incubation was performed in a series of experiments with different exposure times (5, 10, 15, 30, and 60 min) to PrRP31 and its palmitoylated analog. Activation of analogs was strongest after 10 min. Then, the cells were treated with inhibitors of signaling pathways for 2 min, and analogs were added for 8 min. The time of exposure was set to 8 min to ensure that the incubation time for PrRP31 and its palmitoylated analog was the same. The controls and compounds were tested in triplicate in three independent experiments. The PI3K/Akt pathway is one of the main signaling pathways of insulin; therefore, insulin was used as a positive control. Scrambled peptide was used as a negative control. Activation is expressed as the ratio of the activated protein to the total amount of the protein. GAPDH was used as a loading control.
For further research, inhibitors of signaling pathways were used. The growth medium was exchanged for serum-free DMEM 16 h before the experiment. On the day of the experiment, cells were incubated for 2 min with rapamycin, SB216736 or U0126 at a final concentration of 1 × 10^−6 M; then, PrRP31, palm^11-PrRP31 or scrambled peptide at a final concentration of 1 × 10^−5 M or insulin at a concentration of 1 × 10^−7 M was added for 8 min. The plates were stored at 37 °C. The controls and compounds were tested in triplicate.

[3] = normalized to GAPDH, triplicates

CC[C@H](C)[C@H](NC(=O)CNC(=O)[C@H](CCCNC(=N)N)NC(=O)[C@H](CO)NC(=O)[C@H](C)NC(=O)[C@H](Cc1ccc(O)cc1)NC(=O)[C@H](Cc1c[nH]c2ccccc12)NC(=O)[C@H](C)NC(=O)[C@@H]1CCCN1C(=O)[C@H](CC(N)=O)NC(=O)[C@@H](NC(=O)[C@H](CC(=O)O)NC(=O)[C@@H]1CCCN1C(=O)[C@@H](NC(=O)[C@H](CCCNC(=N)N)NC(=O)[C@@H](NC(=O)[C@H](CCC(=O)O)NC(=O)[C@H](CCSC)NC(=O)[C@H](CO)NC(=O)[C@H](Cc1c[nH]cn1)NC(=O)[C@H](CCCNC(=N)N)NC(=O)[C@H](Cc1c[nH]cn1)NC(=O)[C@@H](NC(=O)[C@H](CCCNC(=N)N)NC(=O)[C@@H](N)CO)[C@@H](C)O)[C@@H](C)CC)[C@@H](C)O)[C@@H](C)CC)C(=O)N[C@@H](CCCNC(=N)N)C(=O)N1CCC[C@H]1C(=O)N[C@H](C(=O)NCC(=O)N[C@@H](CCCNC(=N)N)C(=O)N[C@@H](Cc1ccccc1)C(N)=O)C(C)C [PrRP31]
change of cell viability compared to cells administered with 1.2 mM MG (SH-SY5Y cells): nonsignificant increase | Tau phosphorylation at Ser198/199/202 (Tau 1)/Tau 5 induced by MG, effect of pretreatment [1]: tended to decrease | attenuation of MG-increased Tau phosphorylation at Ser396 ([1]; triplicates): 46% | p-CREB after incubation with peptide, no inhibitor [2]: increased | p-ERK after incubation with peptide, no inhibitor [2]: increased | p-m-Tor (Ser2448) after application of peptide, no inhibitor [2, 3]: significantly increased

CCCCCCCCCCCCCCCC(=O)N[C@@H](CCC(=O)NCCCC[C@H](NC(=O)[C@@H](NC(=O)[C@H](CCC(=O)O)NC(=O)[C@H](CCSC)NC(=O)[C@H](CO)NC(=O)[C@H](Cc1c[nH]cn1)NC(=O)[C@H](CCCNC(=N)N)NC(=O)[C@H](Cc1c[nH]cn1)NC(=O)[C@@H](NC(=O)[C@H](CCCNC(=N)N)NC(=O)[C@@H](N)CO)[C@@H](C)O)[C@@H](C)CC)C(=O)N[C@H](C(=O)N1CCC[C@H]1C(=O)N[C@@H](CC(=O)O)C(=O)N[C@H](C(=O)N[C@@H](CC(N)=O)C(=O)N1CCC[C@H]1C(=O)N[C@@H](C)C(=O)N[C@@H](Cc1c[nH]c2ccccc12)C(=O)N[C@@H](Cc1ccc(O)cc1)C(=O)N[C@@H](C)C(=O)N[C@@H](CO)C(=O)N[C@@H](CCCNC(=N)N)C(=O)NCC(=O)N[C@H](C(=O)N[C@@H](CCCNC(=N)N)C(=O)N1CCC[C@H]1C(=O)N[C@H](C(=O)NCC(=O)N[C@@H](CCCNC(=N)N)C(=O)N[C@@H](Cc1ccccc1)C(N)=O)C(C)C)[C@@H](C)CC)[C@@H](C)CC)[C@@H](C)O)C(=O)O [palm^11-PrRP31] (H-SRTHRHSMEIK([γGlu-Palmitoyl])TPDINPAWYASRGIRPVGRF-NH2; N-terminus assumed)
change of cell viability compared to cells administered with 1.2 mM MG (SH-SY5Y cells): nonsignificant increase | attenuation of MG-increased Tau phosphorylation at Ser396 ([1]; triplicates): 32% | increase in unphosphorylated Tau (Tau 1 antibody, Ser198/199/202)/Tau 5 ([1]; triplicates): 32% | p-CREB after incubation with peptide, no inhibitor [2]: increased | p-ERK after incubation with peptide, no inhibitor [2]: increased | p-m-Tor (Ser2448) after application of peptide, no inhibitor [2, 3]: significantly increased | p-GSK-3β (Ser9) after incubation with peptide, no inhibitor ([2]; palm^11-PrRP31 1 × 10^−5 M, normalized to GAPDH, triplicates): slight increase
